The values that follow come from patent publication US12370202B2, “Methods and compositions for inhibiting the NLRP3 inflammasome and/or LON protease” (TRITERPENOID THERAPEUTICS, INC., priority 2019, dated 2025).

The subject of one data set is brain tumor cell lines. The data set is described as follows: Radiation response of brain tumor cell lines in vitro. The class given is cell-based.
The nature of data set [1]: Drug levels in brain after systemic dosing, HPLC/Mass Spec. The class given is in vivo, Mice. The method, then: Mice (3 per group) were treated with single intraperitoneal (i.p.) doses of either 1 micromole (low dose) or 2 micromoles (high dose) of CDDO-2P-Im in DMSO. Brains were analyzed either 3 or 6 hours after dosing. Brains were homogenized in saline, then extracted with acetonitrile, and the extracts subjected to HPLC/Mass Spec analysis, using appropriate standard curves from spiked homogenates. Values obtained (in nanomoles/kg of brain) were: 270+/−80 (low dose, 3 hours); 300+/−90 (low dose, 6 hours); 2,600+/−2,200 (high dose, 3 hours); and 540+/−260 (high dose, 6 hours).
A second experiment with oral or i.p. dosing of 1 micromole of CDDO-2P-Im, and analysis at 6 hours, confirmed the above results, with drug levels in brain ranging from 140 to 900 nanomoles/kg of brain in 10 different samples from cerebral cortex.

The test system of data set [2] is 5T33MM cells. The data set is described as follows: MM cell proliferation (confluence), IncuCyte imaging. The class given is cell-based, murine. To be noted: 72 hours. The method, then:
FIG. 2 is a bar graph. CDDO-2P-Im inhibits proliferation of multiple myeloma cell line in vitro. 5T33MM, RPMI8226, and ARH77 cells were seeded in 96-well plates and incubated with CDDO-2P-Im (50 nM-150 nM). Confluence (cell proliferation) was measured using IncuCyte imaging after 72 hours. *p<0.01 compared to control.
FIG. 3 is a bar graph. […] Shown here are results for 5T33MM (50 nM TTX01/7.5 nM IXZ); RPMI8226 (100 nM TTX01/7.5 nM IXZ); and ARH77 (150 nM TTX01/10 nM IXZ). Confluence (cell proliferation) was measured using IncuCyte imaging after 72 hours.
To examine tumor-intrinsic effects of CDDO-2P-IM in the 5T33MM cell line and in human MM cells, conducted a series of in vitro studies was conducted. For these experiments, 96-well plates were first coated in poly-L-ornithine before cells were seeded (in triplicate), including the murine 5T33MM and the human RPMI8226, and ARH77 cell lines (15,000 cells per well). Cells were incubated in IncuCyte™ Live-Cell Analysis System for 72 hours (images were taken every 4 hours). To define dose-dependent effect of CDDO-2P-IM, cells were exposed to concentrations ranging from 50 nM to 150 nM. To examine potential synergy of CDDO-2P-IM with IXZ, MM cells were exposed to IXZ (7 nM-10 nM) either alone or in combination with CDDO-2P-IM.

The test system of data set [3] is 5T33MM cells. As to the kind of experiment: 5T33MM syngeneic preclinical model of multiple myeloma. The class given is in vivo. The source says:
FIG. 1 is a survival curve. Survival of mice receiving either ixazomib (IXZ) or CDDO-2P-Im starting 21 days after tumor cell injection (n=5 mice per group). CDDO-2P-Im is active in the […] preclinical model of multiple myeloma.
A well-characterized syngeneic model of MM was employed. Adoptive transfer of 5T33MM cells into C57BL/KaLwRij recipient mice invariably leads to MM bone disease, impaired hematopoietic function and death.
To monitor MM tumor progression in the 5T33MM preclinical model, a 5T33MM cell line that expresses either luciferase or GFP genes was established by transducing with lentiviral particles containing firefly luciferase and GFP genes (Amsibo, Cambridge, MA); cells were selected with FACS sorting for GFP expression and by puromycin-resistance. For these experiments, 1×10^6 5T33MM-luc cells were introduced by intravenous injection into C57BL/KaLwRij mice at 2 months of age. Bioluminescence (BLI) was measured by using the IVIS Imaging System 100 (Xenogen). At 3 weeks after 5T33MM cell inoculation (where mice have established disease by BLI), mice were randomized to receive either vehicle, CDDO-2P-IM ([…] daily administered by oral gavage (po), 5 days/week), or ixazomib (IXZ; 6 mg/kg per week, administered po every Monday, Wednesday and Friday).

The target in a further data set is LONP1 (Homo sapiens, UniProt P36776). The data set is described as follows: Binding to LONP1.
In another data set the test system is Caspase 1. The data set is described as follows: Caspase 1 activation in LPS-primed BMDM, immunoblotting (caspase-p10). The class given is cell-based, mouse. The conditions noted are these: different doses (30-1000 nM) 15 min before ATP (5 mM) 45 min. The method, then: FIG. 5 depicts a Western blot. CDDO-Im, CDDO-2P-Im, and CDDO-3P-Im inhibit Caspase 1 activation. LPS primed BMDM were treated with different doses of CDDO-Im, CDDO-2P-Im, or CDDO-3P-Im for 15 min before ATP (5 mM) was added for 45 min. Medium supernatant (SUP) and cell extracts (Lys) were analyzed by immunoblotting.
The effects of the pyridyl derivatives of CDDO-IM, (specifically, CDDO-2P-Im and CDDO-3P-Im) on NLRP3 inflammasome activation were tested in mouse BMDMs. Cells were first primed with LPS for 4 hours, then pretreated with specific doses of either CDDO-Im, CDDO-2P-IM or CDDO-3P-Im (30-1000 nM) for 15 min before ATP was added for another 45 min. CDDO-Im and its pyridyl derivatives inhibited the amount of caspase-p10 (an auto-processed fragment of caspase-1) released into cell culture supernatants in a dose-dependent manner as measured by Western blot (FIG. 5). […] The effect on caspase-1 activation is specific for the NLRP3 inflammasome as the AIM2 inflammasome activation by poly(dA:dT) was not inhibited by the synthetic CDDO-Im derivatives (data not shown).
In general terms: In western blotting, separated proteins are transferred to a membrane and probed.

Chain of LONP1 (P36776 68-959, species assumed): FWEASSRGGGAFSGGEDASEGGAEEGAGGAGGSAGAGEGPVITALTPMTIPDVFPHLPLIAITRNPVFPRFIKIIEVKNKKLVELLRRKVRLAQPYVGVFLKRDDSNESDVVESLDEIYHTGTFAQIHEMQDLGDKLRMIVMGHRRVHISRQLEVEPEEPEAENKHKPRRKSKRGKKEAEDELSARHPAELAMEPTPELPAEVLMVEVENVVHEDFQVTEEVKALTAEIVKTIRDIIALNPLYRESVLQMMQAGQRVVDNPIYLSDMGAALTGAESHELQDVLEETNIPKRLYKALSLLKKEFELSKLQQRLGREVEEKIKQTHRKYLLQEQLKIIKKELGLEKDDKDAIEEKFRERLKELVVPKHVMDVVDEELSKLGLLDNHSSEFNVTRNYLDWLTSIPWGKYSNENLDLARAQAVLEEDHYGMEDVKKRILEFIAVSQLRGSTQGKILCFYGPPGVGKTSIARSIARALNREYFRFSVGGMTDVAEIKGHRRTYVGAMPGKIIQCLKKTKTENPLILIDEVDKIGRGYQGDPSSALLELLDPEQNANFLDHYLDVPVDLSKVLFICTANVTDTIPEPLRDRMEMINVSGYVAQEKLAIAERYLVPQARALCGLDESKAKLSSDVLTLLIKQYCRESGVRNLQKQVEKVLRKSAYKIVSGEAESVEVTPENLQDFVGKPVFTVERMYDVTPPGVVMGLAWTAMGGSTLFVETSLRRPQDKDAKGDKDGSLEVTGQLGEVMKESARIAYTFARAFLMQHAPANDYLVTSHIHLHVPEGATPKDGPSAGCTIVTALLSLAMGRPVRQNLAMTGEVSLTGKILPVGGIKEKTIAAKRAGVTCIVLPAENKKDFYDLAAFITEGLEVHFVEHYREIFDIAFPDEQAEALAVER

In the case of `CC1(C)CC[C@]2(C(=O)n3cnc(-c4ccccn4)c3)CC[C@]3(C)[C@H](C(=O)C=C4[C@@]5(C)C=C(C#N)C(=O)C(C)(C)[C@@H]5CC[C@]43C)[C@@H]2C1` [CDDO-2P-Im, 1-[2-Cyano-3,12-dioxooleana-1,9(11)-dien-28-oyl]-4(-pyridin-2-yl)-1H-imidazole], the radiation response entry with brain tumor cell lines is given as “enhances radiation response”. The level in brain in data set [1] (single i.p. 1 micromole (low dose) in DMSO, 3 hours) is 270+/−80 nanomoles/kg of brain; in data set [1] (single i.p. 1 micromole (low dose) in DMSO, 6 hours), 300+/−90 nanomoles/kg of brain; in data set [1] (single i.p. 2 micromoles (high dose) in DMSO, 3 hours), 2,600+/−2,200 nanomoles/kg of brain; in data set [1] (single i.p. 2 micromoles (high dose) in DMSO, 6 hours), 540+/−260 nanomoles/kg of brain. Also, the “proliferation (confluence), combination with IXZ” value in the data set on 5T33MM cells [2] (50 nM TTX01/7.5 nM IXZ) was “act synergistically”. In the data set on 5T33MM cells [2] (50 nM TTX01 or 7.5 nM IXZ alone), the “proliferation (confluence), agent added alone” value was “only partially effective”. In the data set with 5T33MM cells [2] (50 nM-150 nM), the “proliferation (confluence)” value is reported as “significant dose-dependent suppressive effects”. Also, the “anti-MM activity (survival) as a single agent” value with 5T33MM cells [3] (daily oral gavage 5 days/week from 3 weeks after 5T33MM-luc inoculation, compared to IXZ 6 mg/kg per week po) is given as “comparable to or better than IXZ”. In addition, in the data set on 5T33MM cells [3] (daily oral regimen), the tolerability result is listed as “well tolerated”. At LONP1, the “binding to LONP1” value is on record as “shown to bind LONP1”. In addition, the “Caspase 1 activation (caspase-p10 released into supernatant)” value in the data set on Caspase 1 is reported as “inhibit”.
